The target in assay [1] is T1, hsEH (Homo sapiens, UniProt P34913).
T1 sequence (P34913 1-555): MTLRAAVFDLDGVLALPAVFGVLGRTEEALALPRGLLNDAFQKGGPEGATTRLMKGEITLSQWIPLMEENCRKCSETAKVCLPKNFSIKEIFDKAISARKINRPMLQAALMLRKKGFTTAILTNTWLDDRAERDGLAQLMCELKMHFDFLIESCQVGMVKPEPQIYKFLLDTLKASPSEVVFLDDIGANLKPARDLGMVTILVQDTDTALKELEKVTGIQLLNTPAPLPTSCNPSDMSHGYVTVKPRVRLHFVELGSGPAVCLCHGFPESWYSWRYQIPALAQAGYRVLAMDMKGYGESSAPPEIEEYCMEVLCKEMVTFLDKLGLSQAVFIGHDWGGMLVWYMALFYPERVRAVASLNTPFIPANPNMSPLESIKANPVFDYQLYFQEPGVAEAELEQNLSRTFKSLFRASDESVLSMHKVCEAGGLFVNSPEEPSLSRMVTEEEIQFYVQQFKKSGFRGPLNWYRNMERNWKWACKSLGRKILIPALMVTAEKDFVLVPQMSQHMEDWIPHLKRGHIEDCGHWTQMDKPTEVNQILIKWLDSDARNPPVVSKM
Description: Fluorescence binding assay.

The target in assay [2] is T2, murine sEH (Mus musculus, UniProt P34914).
T2 sequence (P34914 1-554): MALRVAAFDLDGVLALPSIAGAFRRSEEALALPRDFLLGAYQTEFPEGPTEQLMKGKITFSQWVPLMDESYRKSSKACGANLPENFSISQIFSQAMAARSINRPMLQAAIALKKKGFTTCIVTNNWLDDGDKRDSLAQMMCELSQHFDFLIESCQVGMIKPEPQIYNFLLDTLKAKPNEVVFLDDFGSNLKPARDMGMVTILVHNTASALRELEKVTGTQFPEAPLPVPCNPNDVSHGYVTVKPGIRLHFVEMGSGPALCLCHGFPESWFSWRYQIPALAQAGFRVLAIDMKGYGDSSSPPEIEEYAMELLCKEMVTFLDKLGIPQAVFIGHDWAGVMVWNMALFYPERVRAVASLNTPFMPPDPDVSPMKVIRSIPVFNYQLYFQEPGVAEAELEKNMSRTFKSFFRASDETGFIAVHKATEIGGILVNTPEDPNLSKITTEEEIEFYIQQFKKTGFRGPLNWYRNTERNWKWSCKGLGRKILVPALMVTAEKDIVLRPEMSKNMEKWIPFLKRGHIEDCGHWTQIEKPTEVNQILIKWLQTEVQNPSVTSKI
As to the kind of experiment: Fluorescence binding assay of reporter ACPU on murine sEH.

For assay [3], the target named is T3, rat sEH (Rattus norvegicus, UniProt P80299).
T3 sequence (P80299 1-554): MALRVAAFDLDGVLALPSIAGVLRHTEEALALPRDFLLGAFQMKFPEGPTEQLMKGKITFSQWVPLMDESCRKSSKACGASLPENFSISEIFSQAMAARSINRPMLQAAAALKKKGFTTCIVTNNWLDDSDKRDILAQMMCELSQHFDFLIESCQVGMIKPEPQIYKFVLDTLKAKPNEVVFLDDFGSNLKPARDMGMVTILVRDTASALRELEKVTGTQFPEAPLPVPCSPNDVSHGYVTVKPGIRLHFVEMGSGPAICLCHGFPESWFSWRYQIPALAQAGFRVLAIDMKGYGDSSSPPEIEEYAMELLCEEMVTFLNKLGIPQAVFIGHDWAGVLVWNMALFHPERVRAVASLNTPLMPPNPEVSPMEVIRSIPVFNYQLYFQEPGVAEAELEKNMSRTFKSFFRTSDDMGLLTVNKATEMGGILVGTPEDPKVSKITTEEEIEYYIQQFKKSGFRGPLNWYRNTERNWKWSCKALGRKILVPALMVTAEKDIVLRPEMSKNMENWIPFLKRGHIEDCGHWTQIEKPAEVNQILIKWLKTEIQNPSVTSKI
As to the kind of experiment: Fluorescence binding assay of reporter ACPU on rat sEH.

In the case of `O=C(NC1CCN(C(=O)Cc2cc(=O)oc3cc(O)ccc23)CC1)NC12CC3CC(CC(C3)C1)C2` [ACPU, 1-(adamantan-1-yl)-3-(1-(2-(7-hydroxy-2-oxo-2H-chromen-4-yl)acetyl)piperidin-4-yl)urea], the values for the Kd in assay [1], in assay [2] and in assay [3] were 1.04 ± 0.04 nM, 0.1 nM and 0.17 nM, respectively. In assay [1] (FRET signal at 450 nm), the “time needed to reach the equilibrium between ACPU and sEH” value was found to be 40 min.

Broadly, the Kd is a measure of binding affinity in units of concentration.

For the origin of these results see article PMC3632402 (Analytical biochemistry, 2012).
